The record followed here is patent publication US5118681A (priority 1989, dated 1992).

One test relates to A.n. The experiment in a line: Minimum Inhibitory Concentration Test, alternate (Table 4), A.n. It counts as cell-based, Aspergillus niger. To be noted: Aspergillus niger, TSB, 72 hours. In short, it runs like this:
(§1)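 Compound in acetone was diluted into TSB and serially diluted 1:1 from 250 ppm down to 0.8 ppm, in duplicate. Plates were inoculated with diluted 24 h culture and incubated 3 days at 30° C; MIC recorded as lowest concentration with no growth.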

The test system of a further test is Pseudomonas fluorescens. The experiment in a line: Minimum Inhibitory Concentration Test, alternate (Table 4), Ps.fl. The test is classed as cell-based. To be noted: Pseudomonas fluorescens, TSB, 72 hours, 30° C. The gist of the method: as §1
Test [1] has as its system Pseudoperonospora cubensis. Nature of the test: whole plant or invertebrate. It counts as in vivo. To be noted: Pseudoperonospora cubensis, in Cucumis sativus, 168 h; read-out: % control CDM.
The next test relates to Piricularia oryzae. Nature of the test: whole plant or invertebrate. It counts as in vivo. To be noted: Pyricularia oryzae, read-out: % control RB.
Test [2] concerns Pellicularia filamentosa (f. sp. sasiki). The experiment in a line: whole plant or invertebrate. The test is classed as in vivo. The note with it: 120 h; read-out: % control RSB.
For the next test, the system named is Phytophthora infestans. The experiment in a line: whole plant or invertebrate. The test is classed as in vivo. The note with it: Phytophthora infestans, in Solanum lycopersicum, 96 h, read-out: % control TLB.
Test [3] has as its system Erysiphe graminis (f. sp. tritici). The experiment in a line: whole plant or invertebrate. It counts as in vivo. The note with it: Blumeria graminis; read-out: % control WPM.
For test [4], the system named is Puccinia graminis (f. sp. tritici Race 15B-2). The experiment in a line: whole plant or invertebrate. The test is classed as in vivo. To be noted: 336 h, read-out: % control WSR.
For the next test, the system named is A.p. Nature of the test: Minimum Inhibitory Concentration Test, alternate (Table 4), A.p. The test is classed as cell-based. To be noted: Aureobasidium pullulans, TSB, 72 hours. The method, then:
(§2) A 125 μl aliquot of 10,000 ppm test compound in acetone was added to 4.88 ml of TSB to provide a 250 ppm solution. From this solution, 100 μL was transferred to the first row of two microtiter plate columns. Both replicates and five additional compounds were all serially diluted 1:1 to a final concentration of 0.8 ppm in TSB.
(§3) Inoculation was accomplished by diluting a 24 hr Ps fl culture, four mls per 36 mls of phosphate buffer solution. A Dynatech autoinoculator was used to transfer 1.5 μl of this cell suspension to the microtiter plates. The plates were incubated at 30° C. for 3 days before the lowest concentration at which no growth occurs was recorded in the database. The SOK data and MIC test data on Ps.fl, Ps.ae, E.c, and S.a. bacteria and Candida albicans (C.alb), A.n and A.p fungi are listed in Table 4.

Another test has as its system Candida albicans (C.alb). The experiment in a line: Minimum Inhibitory Concentration Test, alternate (Table 4), C.alb. The test is classed as cell-based. The note with it: Candida albicans, TSB, 72 hours. The method, then: as §2, §3
The subject of another test is E.c. The experiment in a line: Minimum Inhibitory Concentration Test, alternate (Table 4), E.c. It counts as cell-based, Escherichia coli. The note with it: Escherichia coli, TSB, 72 hours. On the procedure:
as §2, §3

In a further test the test system is Ps.ae. The experiment in a line: Minimum Inhibitory Concentration Test, alternate (Table 4), Ps.ae. It counts as cell-based, Pseudomonas aerugenosa. To be noted: Pseudomonas, TSB, 72 hours.
The test system of the next test is S.a. The experiment in a line: Minimum Inhibitory Concentration Test, alternate (Table 4), S.a. It counts as cell-based, Staphylococcus aureus. The note with it: Staphylococcus aureus, TSB, 72 hours. The method, then: as §2, §3
Test [5] has as its system Puccinia recondita (f. sp. tritici Races PKB and PLD). Nature of the test: whole plant or invertebrate. The test is classed as in vivo. To be noted: Puccinia recondita, 240 h; read-out: % control WLR.

Structures are written as SMILES. ≈ marks a conversion by molar mass, not a printed value.

As to `CCCCCCCCNC(=O)/C=C\SC(C(=O)CC)C(=O)CC` [Example 8, N-n-octyl-cis-3-[4-(3,5-heptanedionyl)thio]acrylamide], the minimal inhibitory concentration (MIC) with A.n and with Pseudomonas fluorescens was above 500 µg/mL in each case. Moreover, the pest or weed control at 200 ppm in test [1] stood at 95%; in the test on Piricularia oryzae it was 95%; in test [2], 0%; in the test with Phytophthora infestans, 92%; in test [3] it was 0%; in test [4] it was 60%.
On to `CCCCCCCCNC(=O)/C=C\SC1C(=O)CC(C)(C)CC1=O` [Example 9, N-n-octyl-cis-3-[2-(5,5-dimethyl-1,3-cyclohexanedionyl)thio]acrylamide], for which the MIC against A.n and against Pseudomonas fluorescens was above 500 µg/mL in each case. Besides, the pest or weed control at 200 ppm stood at 99% in test [1]; 50% in the test on Piricularia oryzae; 0% in test [2]; 70% in the test on Phytophthora infestans; 0% in test [3]; 60% in test [4].
With `CCCCCCCCNC(=O)/C=C\SC(C(=O)Nc1cccc(Cl)c1Cl)C(=O)OCC` (stereo not drawn) [Example 35, N-n-octyl-cis-3-{2-[ethyl-N-(2,3-dichlorophenyl)malonamido]thio}acrylamide], the MIC is 8 to 16 µg/mL (≈ 16.3 to 32.7 µM) in the test on A.n; below 2 µg/mL in the test with A.p; 4 µg/mL (≈ 8.17 µM) against Candida albicans (C.alb); above 250 µg/mL with E.c; above 250 µg/mL against Ps.ae; 500 µg/mL (≈ 1020 µM) with Pseudomonas fluorescens. In the test on S.a, this compound registered an MIC above 250 µg/mL. In addition, the pest or weed control at 100 ppm came out at 99% in test [1]; 0% with Piricularia oryzae; 0% in test [2]; 95% in the test with Phytophthora infestans; 0% in test [3]; 50% in [5].
For `CCCCCCCCNC(=O)/C=C\SC(C(=O)NC1CC1)C(=O)OCC` (stereo not drawn) [Example 36, N-n-octyl-cis-3-[2-(ethyl-N-cyclopropylmalonamido)thio]acrylamide], the MIC was 8 to 16 µg/mL (≈ 20.8 to 41.6 µM) in the test on A.n; below 2 µg/mL with A.p; 31 µg/mL (≈ 80.6 µM) against Candida albicans (C.alb); above 250 µg/mL against E.c; above 250 µg/mL in the test on Ps.ae; 500 µg/mL (≈ 1300 µM) against Pseudomonas fluorescens. In the test with S.a, this compound returned an MIC of 125 µg/mL (≈ 325 µM). The pest or weed control at 100 ppm in test [1] is 100%; in the test on Piricularia oryzae, 90%; in [2], 0%; in the test on Phytophthora infestans it was 47%; in [3] it was 0%; in test [5], 50%.
Take `C=CCNC(=O)C(S/C=C\C(=O)NCCCCCCCC)C(=O)OCC` (stereo not drawn) [Example 37, N-n-octyl-cis-3-{2-[ethyl-N-(2-propenyl)malonamido]thio}acrylamide]: the MIC in the test with A.n was 4 to 8 µg/mL (≈ 10.4 to 20.8 µM); in the test with A.p, below 2 µg/mL; against Candida albicans (C.alb) it was 8 µg/mL (≈ 20.8 µM); with E.c, above 250 µg/mL; against Ps.ae, above 250 µg/mL; with Pseudomonas fluorescens, 500 µg/mL (≈ 1300 µM). The MIC against S.a turned out to be 31 µg/mL (≈ 80.6 µM). Further, the pest or weed control at 100 ppm is 100% in [1]; 95% in the test with Piricularia oryzae; 0% in test [2]; 95% with Phytophthora infestans; 50% in test [3]; 75% in test [5].
With `CCCCCCCCNC(=O)/C=C\SC(C(=O)Nc1ccc(Cl)cc1Cl)C(=O)OCC` (stereo not drawn) [Example 41, N-n-octyl-cis-3-{2-[ethyl-N-(2,4-dichlorophenyl)malonamido]thio}acrylamide], the MIC is 8 to 31 µg/mL (≈ 16.3 to 63.3 µM) against A.n; 8 µg/mL (≈ 16.3 µM) against A.p; 63 µg/mL (≈ 129 µM) with Candida albicans (C.alb); above 500 µg/mL with E.c; above 500 µg/mL with Ps.ae; above 500 µg/mL in the test with Pseudomonas fluorescens. The same compound gave an MIC with S.a above 500 µg/mL. Moreover, the pest or weed control at 100 ppm is 100% in [1]; 99% with Piricularia oryzae; 0% in test [2]; 87% in the test with Phytophthora infestans; 50% in [3]; 0% in [5].
With `CCCCCCCCNC(=O)/C=C\SC(C(C)=O)C(=O)Nc1ccc(OC)cc1` (stereo not drawn) [Example 47, N-n-octyl-cis-3-{2-[N-(4-methoxyphenyl)acetoacetamido]thio}acrylamide], the MIC is 4 to 16 µg/mL (≈ 9.51 to 38 µM) with A.n; below 2 µg/mL in the test on A.p; 4 µg/mL (≈ 9.51 µM) against Candida albicans (C.alb); above 250 µg/mL in the test on E.c; above 250 µg/mL against Ps.ae; above 250 µg/mL against Pseudomonas fluorescens. This compound also returned an MIC against S.a of 31 µg/mL (≈ 73.7 µM). Also, the pest or weed control at 100 ppm in test [1] was 100%; with Piricularia oryzae, 0%; in test [2], 0%; in the test with Phytophthora infestans, 80%; in test [3], 0%; in [5], 0%.
For `CCCCCCCCNC(=O)/C=C\SC(C(=O)Nc1ccc(Cl)c([N+](=O)[O-])c1)C(=O)OCC` (stereo not drawn) [Example 48, N-n-octyl-cis-3-{2-[ethyl-N-(3-nitro-4-chlorophenyl)malonamido]thio}acrylamide], the MIC against A.n was 4 to 31 µg/mL (≈ 8 to 62 µM); against A.p, below 2 µg/mL; with Candida albicans (C.alb), 31 µg/mL (≈ 62 µM); against E.c, above 250 µg/mL; against Ps.ae it was above 250 µg/mL; in the test on Pseudomonas fluorescens it was above 250 µg/mL. The MIC against S.a was above 250 µg/mL. Moreover, the pest or weed control at 100 ppm was 99% in test [1]; 0% in the test with Piricularia oryzae; 0% in [2]; 99% in the test on Phytophthora infestans; 0% in test [3]; 50% in [5].
With `CCCCCCCCNC(=O)/C=C\SC(C(=O)NCCCN1CCOCC1)C(=O)OCC` (stereo not drawn) [Example 51, N-n-octyl-cis-3-{2-[ethyl-N-(3-(4-morpholino)propyl)malonamido]thio}acrylamide], the MIC was below 2 µg/mL in the test with A.n; below 2 µg/mL against A.p; below 2 µg/mL in the test with Candida albicans (C.alb); above 250 µg/mL against E.c; above 250 µg/mL against Ps.ae; above 250 µg/mL in the test with Pseudomonas fluorescens. Besides, the minimum inhibitory concentration (MIC) in the test with S.a is 31 µg/mL (≈ 65.7 µM). Besides, the pest or weed control at 100 ppm is 99% in [1]; 0% in the test on Piricularia oryzae; 0% in [2]; 0% with Phytophthora infestans; 0% in [3]; 0% in [5].
Turning to `CCCCCCCCNC(=O)/C=C\SC(C(=O)NN1CCOCC1)C(=O)OCC` (stereo not drawn) [Example 63, N-n-octyl-cis-3-{2-[ethyl-N-(4-morpholino)malonamido]thio}acrylamide], the MIC in the test with A.n was 2 to 16 µg/mL (≈ 4.66 to 37.2 µM); with A.p, below 2 µg/mL; against Candida albicans (C.alb), below 2 µg/mL; with E.c, 250 µg/mL (≈ 582 µM); against Ps.ae, above 250 µg/mL; in the test with Pseudomonas fluorescens, above 250 µg/mL. The compound also displayed an MIC in the test with S.a of 31 µg/mL (≈ 72.2 µM). For the same compound, the pest or weed control at 100 ppm in test [1] came out at 99%; in the test with Piricularia oryzae it was 0%; in test [2], 0%; in the test with Phytophthora infestans, 0%; in test [3], 0%; in test [5], 0%.
On to `CCCCCCCCNC(=O)/C=C\SC(C(=O)NCCc1ccccn1)C(=O)OCC` (stereo not drawn) [Example 66, N-n-octyl-cis-3-{2-[ethyl-N-(2-(2-pyridyl)ethyl)malonamido]thio}acrylamide], for which the MIC in the test on A.n was below 2 µg/mL; against A.p, below 2 µg/mL; in the test on Candida albicans (C.alb), below 2 µg/mL; against E.c, above 250 µg/mL; against Ps.ae, above 250 µg/mL; in the test with Pseudomonas fluorescens it was above 250 µg/mL. Moreover, 63 µg/mL (≈ 140 µM) was the least that counted as inhibitory against S.a (MIC). Besides, the pest or weed control at 100 ppm in test [1] amounted to 100%; in the test with Piricularia oryzae it was 0%; in [2] it was 0%; in the test on Phytophthora infestans it was 40%; in test [3], 0%; in test [5], 0%.

Broadly, the MIC is the smallest concentration in the dilution series that meets the test's criterion for growth inhibition. Low readings indicate a more susceptible organism, high ones a less susceptible organism.
